Data on 22 compounds can be found in PubChem BioAssay (NCI).

Some test systems named below: DMS 114 small cell lung; DLD-1 colon; XF 498 CNS; DMS 273 small cell lung; SNB-78 CNS; M19-MEL melanoma; RXF-631 renal; HOP-18 NSCLC; MDA-N.
Common to all, as to assay: NCI-60 cell line screen, 48 h

Each structure is given as a SMILES string. Where “and” joins values, the source holds several entries; their conditions need not be identical. Identical values can stand only once.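 Briefly, cells in 96-well plates were exposed to five compound concentrations for 48 h, and endpoints were estimated by linear interpolation. GI50: concentration for 50% inhibition of growth. TGI: concentration producing complete growth inhibition.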 Some results are limits rather than exact numbers.

As to `CN1CCC(O)C(CNC23CC4CC(CC(C4)C2)C3)C1` (configuration not stated), the TGI in the test on DMS 114 small cell lung, in the test with DLD-1 colon, in the test with XF 498 CNS, in the test on DMS 273 small cell lung, in the test on SNB-78 CNS and in the test with M19-MEL melanoma was over 100 µM throughout. Further, in the test on RXF-631 renal, the TGI is over 100 µM.
`COc1ccc(CN(O)C2C(CO)OC(n3cc(I)c(=O)[nH]c3=O)C2O)cc1` (configuration not stated): the TGI in the test on DMS 114 small cell lung, in the test on DLD-1 colon, in the test on XF 498 CNS, in the test on DMS 273 small cell lung, in the test on SNB-78 CNS and in the test with M19-MEL melanoma was over 100 µM each time. The TGI in the test with HOP-18 NSCLC was over 100 µM.
Turning to `O=c1c(Cl)nsnc1Cl`, the TGI in the test on MDA-N was determined as 36.9 µM.
`CCN(CC)CCN(C)CC(C)(C)C(=O)/C=C/c1ccccc1`: the TGI was 21.4 µM with DMS 114 small cell lung; 22.2 µM in the test with DLD-1 colon; 24.8 µM in the test with XF 498 CNS; 26.1 µM in the test on DMS 273 small cell lung; 24.3 µM in the test on M19-MEL melanoma; 30.6 µM in the test with HOP-18 NSCLC.
Take `C=C1C(=O)OC2C1C(OC(=O)/C(=C/C)COC(C)=O)CC1(CO1)C1C(OC(=O)/C(=C/C)CO)C=C(C)C21` (configuration not stated): the TGI in the test with DMS 114 small cell lung came out at 4.46 µM; in the test on DLD-1 colon it was 4.14 µM; in the test on XF 498 CNS it was 3.78 µM; in the test on DMS 273 small cell lung, 3.68 µM; in the test on SNB-78 CNS, 6.41 µM; in the test with M19-MEL melanoma, 4.3 µM. The TGI in the test on HOP-18 NSCLC came to 2.74 µM.
For `Cc1cc(O)c2c(c1)C[C@@H](O)C1=C2C(=O)c2c(O)ccc(OC3CC(O)C(OC4CC(OC5CCC(OC6CC(O)C(OC7CC(OC8CCC(O)C(C)O8)C(O)C(C)O7)C(C)O6)C(C)O5)C(O)C(C)O4)C(C)O3)c2C1=O` (some centres not stated), the TGI in the test on DMS 114 small cell lung stood at 0.0378 µM; in the test with DLD-1 colon, 0.0426 µM; in the test on XF 498 CNS it was 0.0517 µM; with DMS 273 small cell lung, 0.0684 µM; in the test on SNB-78 CNS, 0.064 µM; in the test with M19-MEL melanoma, 0.0197 µM. Besides, the TGI with MDA-N is 0.211 µM and 0.387 µM and 0.562 µM; in the test with HOP-18 NSCLC, 0.188 µM. For the same compound, the GI50 with MDA-N is 0.207 µM and 0.24 µM.
Regarding `O=C(CC1Sc2ccccc2NC1=O)Nc1cccc(Cl)c1` (configuration not stated), the TGI was over 100 µM with DMS 114 small cell lung; over 100 µM in the test with DLD-1 colon; 86.5 µM in the test with XF 498 CNS; over 100 µM in the test with DMS 273 small cell lung; over 100 µM with SNB-78 CNS; over 100 µM with M19-MEL melanoma.
For `CC(C)NC(=O)OCc1nnn2c1C(OC(=O)NC(C)C)CC2` (configuration not stated), the TGI in the test with DMS 114 small cell lung, in the test on DLD-1 colon, in the test on XF 498 CNS, in the test on DMS 273 small cell lung, with SNB-78 CNS and in the test with M19-MEL melanoma was over 100 µM each time. For the same compound, the TGI with HOP-18 NSCLC and with RXF-631 renal was over 100 µM throughout.
Take `COCCNC(=O)C1C(=O)N(CCOC)C(=O)/C1=N/N` (configuration not stated): the TGI in the test on DLD-1 colon, in the test on XF 498 CNS, in the test on DMS 273 small cell lung, in the test with SNB-78 CNS and in the test with M19-MEL melanoma was over 100 µM each time.
On to `CCCCNC(=S)Nn1c(-c2ccccc2)nc2ccccc2c1=O`, for which the TGI in the test on DMS 114 small cell lung, with DLD-1 colon, in the test on DMS 273 small cell lung, in the test with M19-MEL melanoma and in the test with HOP-18 NSCLC was over 100 µM throughout.
`C1=C[C@@H]2c3ccc4cnccc4c3NC[C@@H]2C1` yielded a TGI with MDA-N of over 100 µM.
Consider `COc1c(O)c2ccccc2c2cc(O)ccc12`, for which the TGI with DMS 114 small cell lung was found to be 6.03 µM; in the test with DLD-1 colon it was 25.5 µM; with XF 498 CNS, 5.13 µM; in the test with DMS 273 small cell lung it was 20.5 µM; with SNB-78 CNS it was 46.6 µM; with M19-MEL melanoma, 3.59 µM. Besides, the TGI was 2.57 µM in the test on MDA-N and 3.72 µM in the test on HOP-18 NSCLC.
In turn, `NC(=O)C/C=C/CC(N)=O` gave a TGI with MDA-N of over 100 µM.
For the compound `CC(=O)NNc1nc(C)c(C(/C=C/c2ccc(/C=C/C(=N\NC(=O)c3ccncc3)c3sc(NNC(C)=O)nc3C)cc2)=N/NC(=O)c2ccncc2)s1`, the TGI in the test on DMS 114 small cell lung, with DLD-1 colon, in the test on SNB-78 CNS and in the test with M19-MEL melanoma was over 100 µM in each case.
Turning to `CCOP1(=O)OCC2OC(n3cnc4c(N)ncnc43)C(O)C2O1` (configuration not stated), in the test with MDA-N, the TGI was over 100 µM.
As for `CN(NC(=O)/C(=C/c1ccc(O)cc1)NC(=O)c1ccccc1)c1ccnc2cc(Cl)ccc12`, the TGI in the test on MDA-N was 32.2 µM.
Same read-out and setting: then `Nc1nc2nc3c(nc2c(=O)[nH]1)CN(c1ccc(C(=O)O)cc1)C3=O`, with over 100 µM.
With `CCS[C@H]1NC(=O)C1[C@H](C)O[Si](C)(C)C(C)(C)C` (some centres not stated), the TGI with DMS 114 small cell lung, with DLD-1 colon, in the test on XF 498 CNS, in the test on DMS 273 small cell lung, with SNB-78 CNS and in the test on M19-MEL melanoma was over 100 µM throughout. The same compound gave a TGI with HOP-18 NSCLC of over 100 µM.
Take `COC(=O)C1Cc2c([nH]c3ccccc23)[C@H](CC(C)C)N1` (some centres not stated): the TGI in the test with DMS 114 small cell lung, with DLD-1 colon, with XF 498 CNS, with DMS 273 small cell lung, with SNB-78 CNS and in the test with M19-MEL melanoma was over 100 µM in each case. The same compound registered a TGI in the test on HOP-18 NSCLC of over 100 µM.
Turning to `CC(=O)OC1COC(N2C(=O)C(=O)c3c(C)cc(Cl)nc32)C(OC(C)=O)C1OC(C)=O` (configuration not stated), the TGI with DMS 114 small cell lung, with DLD-1 colon, in the test on XF 498 CNS, with DMS 273 small cell lung, in the test with SNB-78 CNS and in the test with M19-MEL melanoma was over 100 µM each time. The compound also yielded a TGI in the test on HOP-18 NSCLC of over 100 µM.
`COC1CC(OC2OC(CO)C(O)C(O)C2O)/C(=C\C#N)C(O)C1OC` (configuration not stated) yielded a TGI in the test with MDA-N of over 100 µM.
Turning to `COC(=O)C(=O)C(C#N)c1cccc2ccccc12` (configuration not stated), the TGI in the test on DMS 114 small cell lung, in the test with DLD-1 colon, in the test with XF 498 CNS, with DMS 273 small cell lung, with SNB-78 CNS and in the test with M19-MEL melanoma was over 100 µM each time. This compound registered a TGI in the test on HOP-18 NSCLC of over 100 µM.
